Target: T1, human RIPK1 (1-375) (Homo sapiens, UniProt Q13546)
T1 construct: human RIPK1 (1-375) gene; GST; made in house; host or cells: Sf-9 insect cells
T1 sequence (Q13546 1-375): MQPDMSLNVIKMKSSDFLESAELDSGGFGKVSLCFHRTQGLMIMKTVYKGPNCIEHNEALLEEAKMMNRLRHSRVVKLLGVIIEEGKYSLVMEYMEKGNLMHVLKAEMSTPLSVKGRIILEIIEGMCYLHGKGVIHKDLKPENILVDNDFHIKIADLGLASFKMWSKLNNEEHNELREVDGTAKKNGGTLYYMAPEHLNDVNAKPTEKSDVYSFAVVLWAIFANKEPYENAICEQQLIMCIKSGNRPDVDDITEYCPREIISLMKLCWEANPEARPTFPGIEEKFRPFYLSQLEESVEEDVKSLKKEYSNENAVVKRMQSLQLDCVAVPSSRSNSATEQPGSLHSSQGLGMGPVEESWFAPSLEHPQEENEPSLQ
Test: Human RIPK1 enzyme inhibitory effect (ADP-Glo Kinase Assay)
Type: biochemical
Details: read-out: human RIPK1 enzyme inhibitory effect at 10 μM (% inhibition), 10 μM test compound; well without enzyme = 100% inhibition
Outline: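 ADP-Glo luminescence read-out of ADP formed over 120 min at room temperature after adding 0.6 mM ATP solution (stock concentration). Compound and Sf-9-expressed, GST-purified RIPK1 (1-375) were first incubated together for 20 min in HEPES pH 7.5 buffer with MgCl2, Tween-20 and DTT.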

Row | inhibition at 10 µM | Compound
1 | 100% | CN1C(=O)[C@@H](N2CCc3cn(Cc4ccc(Cl)cc4)nc3C2=O)COc2ccccc21 [Example 20, (3S)-3-(2-(4-chlorobenzyl)-7-oxo-2,4,5,7-tetrahydro-6H-pyrazolo[3,4-c]pyridin-6-yl)-5-methyl-2,3-dihydro-1,5-benzoxazepin-4(5H)-one]
2 | 98% | CN1C(=O)[C@@H](N2CCc3cn(CC4CCC4)nc3C2=O)COc2ccccc21 [Example 31, (3S)-3-(2-(cyclobutylmethyl)-7-oxo-2,4,5,7-tetrahydro-6H-pyrazolo[3,4-c]pyridin-6-yl)-5-methyl-2,3-dihydro-1,5-benzoxazepin-4(5H)-one]
3 | 100% | Cc1c2c(nn1Cc1cnccn1)C(=O)N([C@H]1COc3ccccc3N(C)C1=O)CC2 [Example 79, (3S)-5-methyl-3-(3-methyl-7-oxo-2-(pyrazin-2-ylmethyl)-2,4,5,7-tetrahydro-6H-pyrazolo[3,4-c]pyridin-6-yl)-2,3-dihydro-1,5-benzoxazepin-4(5H)-one]
4 | 92% | CN1C(=O)[C@@H](N2CCc3cn(Cc4ccn(C)n4)nc3C2=O)COc2ccccc21 [Example 39, (3S)-5-methyl-3-(2-((1-methyl-1H-pyrazol-3-yl)methyl)-7-oxo-2,4,5,7-tetrahydro-6H-pyrazolo[3,4-c]pyridin-6-yl)-2-,3-dihydro-1,5-benzoxazepin-4(5H)-one]
5 | 98% | CN1C(=O)[C@@H](N2CCc3sc(Cc4ccccc4)nc3C2=O)COc2ccccc21 [Example 16, (3S)-3-(2-benzyl-4-oxo-6,7-dihydro[1,3]thiazolo[4,5-c]pyridin-5(4H)-yl)-5-methyl-2,3-dihydro-1,5-benzoxazepin-4(5H)-one]
6 | 99% | CN1C(=O)[C@@H](N2CCc3cn(Cc4cccc(C#N)c4)nc3C2=O)COc2ccccc21 [Example 29, 3-((6-((3S)-5-methyl-4-oxo-2,3,4,5-tetrahydro-1,5-benzoxazepin-3-yl)-7-oxo-4,5,6,7-tetrahydro-2H-pyrazolo[3,4-c]pyridin-2-yl)methyl)benzonitrile]
7 | 91% | Cc1nccnc1Cn1nc2c(c1Cl)CCN([C@H]1COc3ccccc3N(C)C1=O)C2=O [Example 73, (3S)-3-(3-chloro-2-((3-methylpyrazin-2-yl)methyl)-7-oxo-2,4,5,7-tetrahydro-6H-pyrazolo[3,4-c]pyridin-6-yl)-5-methyl-2,3-dihydro-1,5-benzoxazepin-4(5H)-one]
8 | 101% | CNC(=O)c1ccc2c(c1)N(C)C(=O)[C@@H](N1CCc3c(nn(Cc4ccccc4)c3Cl)C1=O)CO2 [Example 89, (3S)-3-(2-benzyl-3-chloro-7-oxo-2,4,5,7-tetrahydro-6H-pyrazolo[3,4-c]pyridin-6-yl)-N,5-dimethyl-4-oxo-2,3,4,5-tetrahydro-1,5-benzoxazepine-7-carboxamide]
9 | 100% | Cc1c2c(nn1Cc1ccccc1)C(=O)N([C@H]1COc3cc(C#N)ccc3N(C)C1=O)CC2 [Example 86]
10 | 97% | CN1C(=O)[C@@H](N2CCc3c(nn(Cc4ccccc4)c3Cl)C2=O)COc2ccccc21 [Example 76, (3S)-3-(2-benzyl-3-chloro-7-oxo-2,4,5,7-tetrahydro-6H-pyrazolo[3,4-c]pyridin-6-yl)-5-methyl-2,3-dihydro-1,5-benzoxazepin-4(5H)-one]
11 | 99% | COc1ccc(Cn2cc3c(n2)C(=O)N([C@H]2COc4ccccc4N(C)C2=O)CC3)cc1 [Example 161, (3S)-3-(2-(4-methoxybenzyl)-7-oxo-2,4,5,7-tetrahydro-6H-pyrazolo[3,4-c]pyridin-6-yl)-5-methyl-2,3-dihydro-1,5-benzoxazepin-4(5H)-one]
12 | 101% | CN1C(=O)[C@@H](N2CCc3cn(Cc4c(F)cccc4F)nc3C2=O)COc2ccccc21 [Example 24, (3S)-3-(2-(2,6-difluorobenzyl)-7-oxo-2,4,5,7-tetrahydro-6H-pyrazolo[3,4-]pyridin-6-yl)-5-methyl-2,3-dihydro-1,5-benzoxazepin-4(5H)-one]

Source: US10787462B2, “Heterocyclic compound” (TAKEDA PHARMACEUTICAL COMPANY LIMITED, priority 2015, dated 2020)
